Several values for one entry are separate records, joined by “and”; a condition that tells them apart may be missing. Equal entries are not always repeated. One block for each compound: values may come before it.
Assays:
PfLysRS [1] = target: T1, PfLysRS (Plasmodium falciparum, UniProt Q8IDJ8); assay: Thermal shift assay; format: binding; conditions: for ΔTm of PfLysRS / ΔTm at 200 µM: in the presence of L-lysine; for Tm of PfLysRS, Average / Tm of PfLysRS, single repeat: in °C (unit assumed)
T1 construct: PfLysRS (77–583) was constructed in the vector pET20b, with a C-terminal 6×His tag; 6xHis (C); made in house; host or cells: E. coli BL21 (DE3)
T1 sequence (Q8IDJ8 entry or part of it): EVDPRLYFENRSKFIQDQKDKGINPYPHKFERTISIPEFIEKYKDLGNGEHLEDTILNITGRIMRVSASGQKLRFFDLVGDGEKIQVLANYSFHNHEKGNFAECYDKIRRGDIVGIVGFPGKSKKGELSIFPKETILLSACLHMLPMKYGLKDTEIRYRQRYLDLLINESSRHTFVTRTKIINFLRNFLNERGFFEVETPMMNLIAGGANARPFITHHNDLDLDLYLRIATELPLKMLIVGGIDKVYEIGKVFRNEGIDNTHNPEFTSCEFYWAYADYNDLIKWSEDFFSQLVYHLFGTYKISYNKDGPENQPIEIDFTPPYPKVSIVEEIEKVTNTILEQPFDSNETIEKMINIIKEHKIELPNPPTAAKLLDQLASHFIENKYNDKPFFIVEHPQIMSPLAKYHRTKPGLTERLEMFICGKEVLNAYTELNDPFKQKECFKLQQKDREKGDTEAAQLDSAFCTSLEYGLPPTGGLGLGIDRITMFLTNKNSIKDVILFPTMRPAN
Method: PfLysRS protein was prepared at 10 μM concentration in a buffer containing 20 mM Tris pH 8.0, 200 mM NaCl, 500 μM L-lysine, and 200 μM Compound. Aliquots (18 µL) were added to a 96-well PCR plate and incubated at ambient temperature for 10 min. SYPRO Orange dye (Sigma) was diluted in the assay buffer containing 20 mM Tris pH 8.0 and 200 mM NaCl to a 40× concentration, and 2 µL of the 40× dye solution was added to the PCR plate to bring the final assay volume to 20 µL. After complete mixing, the final solutions were heated from 25 to 90 °C at a rate of 0.015 °C per sec, and fluorescence signals were monitored by QuantStudio 3 (Applied Biosystems by Thermo Fisher Scientific).

[2] = test system: erythrocytic-stage P. falciparum 3D7 parasites; assay: In vitro Plasmodium growth assay; format: cell-based, Plasmodium falciparum; conditions: for HillSlope (best-fit value): Plasmodium falciparum 3D7; for LogIC50 (best-fit value): Plasmodium falciparum 3D7, log of nM; for IC50: Plasmodium falciparum 3D7, source data, read-out: IC50 (best-fit value); for EC50: Plasmodium falciparum, 3D7, 72 h
Method: Parasites were cultured in human O+ erythrocytes according to standard procedures. To prepare the >80% ring stage parasites, asynchronous cultures of parasites were pretreated with 5% sorbitol, and P. falciparum strain 3D7 at the mid-ring stage (6–10 h post-invasion) was used to test antimalarial effects in 96-well plates. Parasites were incubated in a 96-well plate with compound containing 1% parasitemia and, 2% hematocrit for a total volume of 200 μL. […] A relevant DMSO concentration was used as a negative control, and cultured erythrocytes without Plasmodium served as a positive control. The parasites were allowed to grow for 72 h at 37 °C with 5% CO2, 5% O2, and 90% N2. After 72 h, 100 μL of lysis buffer (0.12 mg·mL^−1 Saponin, 0.12% Triton X-100, 30 mM Tris-HCl pH 8.0, and 7.5 mM EDTA) with 5× SYBR Green I (Invitrogen; supplied in 10000× concentration) was added to each well of the plate. The plates were then incubated for 2 h in the dark prior to reading the fluorescence signal at 485 nm excitation and 535 nm emission. The percentage of inhibition was calculated by (NC-fluorescence) × 100/(NC-PC).

PfLysRS [3] = target: T1, PfLysRS; assay: ATP hydrolysis assay (Kinase-Glo) on PfLysRS; format: biochemical; conditions: read-out: IC50 against PfLysRS
Method: (§1) The ATP hydrolysis assays were based on Kinase-Glo luminescent Kit (Promega). The experiment was carried out in Corning 384-well white flat bottom microplates. The buffer in the reaction contains 25 mM Hepes pH 7.4, 140 mM NaCl, 40 mM MgCl2, 30 mM KCl, 1 mM TCEP, 0.1 mg·mL^−1 BSA, and 0.004% Tween-20. The compounds were diluted to different concentrations with a 5-fold gradient.
(§2) For LysRS assays, DMSO was added into negative control wells and L-lysine was removed in positive control wells. 100 nM LysRS in 2.5 μL Hepes buffer was mixed with compounds and incubated for 10 min. Then 5 μL substrate mixture (2 μM ATP, 10 μM L-lysine and 31 nM pyrophosphatase) was added to start the reaction at 37 °C and incubated for 6 h.
(§3) When the reaction reaches the planned time, 10 μL diluted Kinase-Glo reagent (1/50 diluted with a buffer containing 50 mM Tris pH 7.5 and 5% glycerol) was added and incubated for 15 min. Luminescence was measured on the Magellan plate reader (Tecan) and nonlinear regression was performed with Prism (GraphPad).

HsLysRS = target: T2, HsLysRS (Homo sapiens, UniProt Q15046); assay: ATP hydrolysis assay (Kinase-Glo) on HsLysRS; format: biochemical; conditions: read-out: IC50 against HsLysRS
T2 construct: HsLysRS (70–581) was constructed in the vector pET20b with a C-terminal 6×His tag; 6xHis (C); made in house; host or cells: E. coli (pET20b; 'purified similarly' to PfLysRS, which was expressed in BL21 (DE3))
T2 sequence (Q15046 70-581): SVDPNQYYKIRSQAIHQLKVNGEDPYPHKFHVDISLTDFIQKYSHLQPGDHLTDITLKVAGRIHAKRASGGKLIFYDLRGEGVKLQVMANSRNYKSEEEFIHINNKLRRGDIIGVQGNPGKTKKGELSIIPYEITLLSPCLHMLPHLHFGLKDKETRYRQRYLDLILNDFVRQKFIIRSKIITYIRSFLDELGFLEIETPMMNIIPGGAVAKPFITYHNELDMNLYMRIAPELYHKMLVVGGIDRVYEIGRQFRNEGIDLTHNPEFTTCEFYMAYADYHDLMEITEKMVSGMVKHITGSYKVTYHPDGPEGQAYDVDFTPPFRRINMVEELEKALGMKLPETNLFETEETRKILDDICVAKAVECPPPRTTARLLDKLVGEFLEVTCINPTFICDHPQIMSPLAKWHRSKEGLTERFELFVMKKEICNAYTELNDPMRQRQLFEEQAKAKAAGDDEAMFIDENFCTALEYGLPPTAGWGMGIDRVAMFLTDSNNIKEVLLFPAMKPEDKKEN
Method: as §1, §2, §3

ALK = target: T3, ALK (Homo sapiens, UniProt Q9UM73); assay: ATP hydrolysis assay (Kinase-Glo) on ALK; format: biochemical; conditions: read-out: IC50 against ALK
T3 construct: The plasmid pCDNA3.1_8×His-tev-ALK (kinase domain, 1068–1410) was constructed; 8xHis (N); TEV site (N); made in house; host or cells: Expi293 cells (transient transfection)
T3 sequence (Q9UM73 1068-1410): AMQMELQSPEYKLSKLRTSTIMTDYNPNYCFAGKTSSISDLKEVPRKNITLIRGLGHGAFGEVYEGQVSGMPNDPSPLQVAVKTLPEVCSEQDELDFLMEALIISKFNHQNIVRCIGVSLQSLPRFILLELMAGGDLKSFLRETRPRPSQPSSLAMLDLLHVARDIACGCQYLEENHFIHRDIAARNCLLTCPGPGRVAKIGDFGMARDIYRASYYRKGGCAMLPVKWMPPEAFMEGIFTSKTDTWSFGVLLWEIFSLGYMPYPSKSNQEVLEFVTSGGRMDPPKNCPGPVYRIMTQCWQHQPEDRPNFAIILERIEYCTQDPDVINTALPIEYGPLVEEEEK
Method: as §1
For ALK assays, DMSO was added into negative control wells. 100 nM ALK in 2.5 μL Hepes buffer was mixed with compounds and incubated for 10 min. Then 5 μL substrate (2 μM ATP) was added to start the reaction at 37 °C and incubated for 6 h.
as §3

[4] = P. falciparum 3D7, Log(Concentration)/nM 3.193, single repeats
[5] = P. falciparum 3D7, Log(Concentration)/nM 3.496, single repeats
[6] = P. falciparum 3D7, Log(Concentration)/nM 3.796, single repeats
[7] = P. falciparum 3D7, Log(Concentration)/nM 4.097, single repeats
[8] = P. falciparum 3D7, Log(Concentration)/nM 4.398, single repeats
[9] = P. falciparum 3D7, Log(Concentration)/nM 4.699, single repeats
[10] = P. falciparum 3D7, Log(Concentration)/nM 5.000, single repeats

SMILES: COc1cc(N2CCC(N3CCN(C)CC3)CC2)ccc1Nc1ncnc(Nc2ccccc2C2C=CCCC2)n1 (stereo not drawn) [Compound 31]
ΔTm of PfLysRS (PfLysRS [1]): 2.0 °C

SMILES: COc1cc(N2CCC(N3CCN(C)CC3)CC2)ccc1Nc1ncnc(Nc2ccccc2C2CCCCC2)n1 [Compound 32]
ΔTm of PfLysRS (PfLysRS [1]): 4.1 °C

SMILES: COc1ccc(C(F)(F)F)cc1Nc1ncnc(Nc2ccccc2S(=O)(=O)C(C)C)n1 [Compound 33]
ΔTm of PfLysRS (PfLysRS [1]): -0.1 °C

SMILES: COC(=O)c1ccc(OC)c(Nc2ncnc(Nc3ccccc3S(=O)(=O)C(C)C)n2)c1 [Compound 34]
% Inhibition ([2]; P. falciparum 3D7, Log(Concentration)/nM 2.290, single repeats): 1.182% and -0.03693% and -1.145% | % Inhibition ([2]; P. falciparum 3D7, Log(Concentration)/nM 2.592, single repeats): 1.736% and -0.03693% and 4.616% | % Inhibition [2, 4]: 62.22% and 58.01% and 53.91% | % Inhibition [2, 5]: 92.69% and 87.92% and 85.93% | % Inhibition [2, 6]: 98.34% and 94.68% and 94.24% | % Inhibition [2, 7]: 98.78% and 97.23% and 96.34% | % Inhibition [2, 8]: 101.2% and 100.6% and 98.23% | % Inhibition [2, 9]: 99.67% and 99.22% and 96.9% | % Inhibition [2, 10]: 94.68% and 96.01% and 94.24% | HillSlope (best-fit value) [2]: 2.802 | LogIC50 (best-fit value) [2]: 3.133 | IC50 [2]: 1.36 µM | EC50 [2]: 1.36 ± 0.04 µM | ΔTm at 200 µM (PfLysRS [1]): 7.9 °C

SMILES: COc1ccc(Nc2ncnc(Nc3ccccc3S(=O)(=O)C(C)C)n2)c(OC)c1 [Compound 35]
ΔTm of PfLysRS (PfLysRS [1]): 6.4 °C

SMILES: COc1ccc(OC)c(Nc2ncnc(Nc3ccccc3S(=O)(=O)CCNC(=O)[C@@H](N)CCCCN)n2)c1 [Compound 36K2]
IC50 (PfLysRS [3]): 0.365 µM | Tm of PfLysRS, Average (PfLysRS [1]; +Lysine, sheet Figure 6B): 50.650 | Tm of PfLysRS, single repeat (PfLysRS [1]; +Lysine, sheet Figure 6B): 50.665 and 50.973 and 50.296 | IC50 (HsLysRS): 31 µM | IC50 (ALK): > 109 µM

SMILES: COc1ccc(OC)c(Nc2ncnc(Nc3ccccc3S(=O)(=O)CCCCCNC(=O)[C@@H](N)CCCCN)n2)c1 [Compound 36K5]
IC50 (PfLysRS [3]): 2.77 µM | △Tm of PfLysRS (PfLysRS [1]; +Lysine, sheet Figure 6B): 10.740 | Tm of PfLysRS, Average (PfLysRS [1]; +Lysine, sheet Figure 6B): 55.760 | Tm of PfLysRS, single repeat (PfLysRS [1]; +Lysine, sheet Figure 6B): 55.867 and 55.929 and 55.806 and 55.437 | IC50 (HsLysRS): 22 µM | IC50 (ALK): > 66.8 µM

More lines, main results first:

ΔTm at 200 µM (PfLysRS [1]): 10.7 °C | IC50 (HsLysRS): 44 µM
SMILES: COc1cnc(OC)c(Nc2ncnc(Nc3ccccc3S(=O)(=O)C(C)C)n2)c1 [Compound 36a]
% Inhibition ([2]; P. falciparum 3D7, Log(Concentration)/nM 2.893, single repeats): 14.91% | % Inhibition [2, 4]: 32.52% and 24.14% | % Inhibition [2, 5]: 30.61% and 34.32% | % Inhibition [2, 6]: 39.42% and 74.11% | % Inhibition [2, 7]: 57.98% and 94.48% | % Inhibition [2, 8]: 81.01% and 104.5% | % Inhibition [2, 9]: 93% and 107% | % Inhibition [2, 10]: 88.65% and 105.6% | HillSlope (best-fit value) [2]: 1.181 | LogIC50 (best-fit value) [2]: 3.762 | IC50 [2]: 5.78 µM | EC50 [2]: 5.78 ± 1.73 µM

ΔTm of PfLysRS (PfLysRS [1]): 0.1 °C
SMILES: COc1ccc(OC)c(Nc2cccc(Nc3ccccc3S(=O)(=O)C(C)C)n2)c1 [Compound 36b]

ΔTm of PfLysRS (PfLysRS [1]): 0 °C
SMILES: COc1ccc(OC)c(Nc2cncc(Nc3ccccc3S(=O)(=O)C(C)C)n2)c1 [Compound 36c]

Reference: PMC11189516, “Structure-guided conversion from an anaplastic lymphoma kinase inhibitor into Plasmodium lysyl-tRNA synthetase selective inhibitors” (Communications Biology, 2024)
